Reference: ChEMBL document CHEMBL1128011, “Discovery of nonpeptide potent conformationally restricted angiotensin II receptor antagonists” (Bioorg Med Chem Lett, 1994)

Key:
[1] = target: T1, Type-1 angiotensin II receptor B (Rattus norvegicus, UniProt P29089); test: Displacement of [125-I]-labeled angiotensin II from Angiotensin II receptor, type 1 of rat uterine membranes; type: cell membranes, Membrane
T1 sequence (P29089 whole entry): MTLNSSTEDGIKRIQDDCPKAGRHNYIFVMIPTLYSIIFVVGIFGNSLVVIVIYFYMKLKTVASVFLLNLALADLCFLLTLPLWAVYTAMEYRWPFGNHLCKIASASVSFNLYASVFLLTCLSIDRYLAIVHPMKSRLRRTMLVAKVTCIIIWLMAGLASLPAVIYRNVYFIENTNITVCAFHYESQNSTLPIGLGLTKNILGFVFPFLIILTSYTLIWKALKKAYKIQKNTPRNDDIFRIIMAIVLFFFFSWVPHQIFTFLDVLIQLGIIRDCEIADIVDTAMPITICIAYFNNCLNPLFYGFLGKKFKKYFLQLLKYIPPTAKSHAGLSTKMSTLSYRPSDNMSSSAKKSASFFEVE

[2] = target: T1, Type-1 angiotensin II receptor B; test: Inhibition of [125-I]-labeled angiotensin II binding to AT1 receptor in rat uterine membranes; type: cell membranes, Membrane
Oryctolagus cuniculus = species: Oryctolagus cuniculus; test: Compound was tested in vitro for its ability to antagonize the AII-mediated contraction of rabbit aortic rings; type: functional, Aorta

IC50 [1]	IC50 [2]	Structure (SMILES)	further results
45000 nM	–	CCCCN1N=C(CCC)/C(=C/c2ccc(-c3ccccc3-c3nn[nH]n3)cc2)C1=O	–
–	> 10000 nM	CCCCc1ncc2n1[C@H](c1ccc(-c3ccccc3-c3nnn(C(c4ccccc4)(c4ccccc4)c4ccccc4)n3)cc1)C[C@@H](Br)[C@@H]2N1C(=O)CCC1=O	–
> 10000 nM	–	CCCCn1nc(C(CCC)CCBr)n(Cc2ccc(-c3ccccc3-c3nnn(C(c4ccccc4)(c4ccccc4)c4ccccc4)n3)cc2)c1=O (stereo not given)	–
500 nM	–	CCCCN1N=C(CCC)C(Cc2ccc(-c3ccccc3-c3nn[nH]n3)cc2)C1=O (stereo not given)	–
> 10000 nM	–	CCCCn1nc(C(CCC)CCO)n(Cc2ccc(-c3ccccc3-c3nnn(C(c4ccccc4)(c4ccccc4)c4ccccc4)n3)cc2)c1=O (stereo not given)	–
–	11 nM	CCCCc1nc(Cl)c2n1[C@H](c1ccc(-c3ccccc3-c3nn[nH]n3)cc1)CC[C@@H]2N1C(=O)CCC1=O	Kb (Oryctolagus cuniculus; Oryctolagus cuniculus, Aorta, read-out: pA2 (converted)): 1.58 nM
1800 nM	–	CCCCn1nc2n(c1=O)C(c1ccc(-c3ccccc3-c3nn[nH]n3)cc1)CCC2CCC (stereo in doubt; 12)	–
–	> 10000 nM	CCCCc1ncc2n1[C@H](c1ccc(-c3ccccc3-c3nnn(C(c4ccccc4)(c4ccccc4)c4ccccc4)n3)cc1)CC[C@@H]2N1C(=O)CCC1=O	–
–	> 10000 nM	CCCCc1cn(Cc2ccc(-c3ccccc3-c3nnn(C(c4ccccc4)(c4ccccc4)c4ccccc4)n3)cc2)c(CCCC)n1	–
> 10000 nM	–	CCCCn1nc(C(CCC)CC2=NC(C)(C)CO2)n(Cc2ccc(-c3ccccc3-c3nnn(C(c4ccccc4)(c4ccccc4)c4ccccc4)n3)cc2)c1=O (stereo not given)	–
1600 nM	–	CCCCn1nc2n(c1=O)C(c1ccc(-c3ccccc3-c3nn[nH]n3)cc1)CCC2CCC (stereo in doubt; 13)	–
5 nM	–	CCCCc1nn(CCCC)c(=O)n1Cc1ccc(-c2ccccc2-c2nnn[nH]2)cc1	–
–	190 nM	CCCCc1nc(CCCC)n2c1C=CCC2c1ccc(-c2ccccc2-c2nn[nH]n2)cc1 (stereo not given)	–
> 10000 nM	–	CCCCn1nc(C(Br)CCC)n(Cc2ccc(-c3ccccc3-c3nnn(C(c4ccccc4)(c4ccccc4)c4ccccc4)n3)cc2)c1=O (stereo not given)	–
> 10000 nM	–	CCCCc1nn(CCCC)c(=O)n1Cc1ccc(-c2ccccc2-c2nnn(C(c3ccccc3)(c3ccccc3)c3ccccc3)n2)cc1	–
–	15 nM	CCCCc1ncc2n1[C@H](c1ccc(-c3ccccc3-c3nn[nH]n3)cc1)CC[C@@H]2N1C(=O)CCC1=O	pA2 (Oryctolagus cuniculus): 8.6
> 10000 nM	120 nM	CCCCc1ncc2n1C(c1ccc(-c3ccccc3-c3nnn[nH]3)cc1)CC=C2 (stereo not given)	–
–	63 nM	CCCCc1cn(Cc2ccc(-c3ccccc3-c3nnn[nH]3)cc2)c(CCCC)n1	–
–	> 10000 nM	CCCCn1nc2n(c1=O)C(c1ccc(-c3ccccc3-c3nn[nH]n3)cc1)CCC2 (stereo not given)	–
> 10000 nM	–	CCCC1CCC(c2ccc(-c3ccccc3-c3nnn[nH]3)cc2)n2c1n[nH]c2=O (stereo not given)	–
> 10000 nM	> 10000 nM	CCCCn1nc2n(c1=O)C(c1ccc(-c3ccccc3-c3nnn(C(c4ccccc4)(c4ccccc4)c4ccccc4)n3)cc1)CCC2CCC (stereo not given)	–
